These results are taken from patent US20040019118A1, “NMDA receptor antagonists and their use in inhibiting abnormal hyperphosphorylation of microtubule associated protein tau” (priority 2002, published 2004).

Holding throughout (assay type): cell-based, rat
For data set [1], the system named is CaMKII. As to the kind of experiment: CaMKII activity in extracts of treated hippocampal slice cultures. Here is the method: (§1) Organotypic cultures of rat hippocampal slices were prepared from 20-30 day old Wistar rats and cultured with the interface method as described previously (Stoppini, et al. 1991; Bahr, et al. 1995; Zhongrin, et al. 2000). The rats were anesthetized with ketamine (100 mg/kg body weight) and decapitated and the hippocampi were dissected out and sliced into 400 um coronal sections by a McIllwain tissue chopper. Select slices with uninterrupted bright transparent neuronal layers were plated, 1-3 slices/filter, onto Millicell CM filters (Millipore, Bedford, Mass.). For the first 2 days in vitro (DIV) cultures were maintained in 25% horse serum, 50% Basal Media-Eagle (BEM), 25% Eagle's Balanced Salt Solution (EBSS), 25 mM HEPES, 1 mM glutamine, 28 mM glucose, pH 7.2, at 32° C. in a 5% CO2 humidified atmosphere. The slice cultures were then switched to 25% horse serum, 50% BEM and EBSS modified so that the potassium concentration was 2.66 mM, for another 5 DIV. After 7 DIV, the cultures were maintained in physiological potassium containing 5% horse serum medium at 35° C. for at least 20 days before any treatment was applied. When the slices were treated, the reagents were applied into the culture medium. At different time points, the slices collected with a brush were washed twice in homogenizing buffer (50 mM HEPES, pH 7.0, 10 mM β-merceptoethanol [BME], 1 mM EDTA, 1 mM EGTA, 0.1 mM phenylmethyl sulfonyl fluoride [PMSF], 2.0 mM benzamidine and 2.0 μg/ml each of aprotinin, leupeptin and pepstatin) and homogenized at 4° C. using a Teflon-glass homogenizer. The homogenate was then divided into two parts, one was centrifuged at 16000×g for 15 min and the supernatant was used to assay activities of PP-2A and PP-1. The rest of the homogenate was diluted 1:1 with a phosphatase inhibitor cocktail (20 mM β-glycerophosphate, 2 mM Na3VO4 and 100 mM NaF, pH 7.0) and either used for Western blots or centrifuged at 16000×g for 15 min and the resulting supernatant used to determine the kinase activities.
(§2) CaMKII activity was measured in 25 μl of buffer containing 50 mM HEPES, pH 7.5, 10 mM MgCl2, 2.0 mM CaCl2, 10 mM BME, 10 μg/ml calmodulin (CaM), 20 μM syntide (Sigma, St Louis Mo., USA), 0.06 mg/ml slice extract and 200 μM [γ^32P]ATP. The reaction was initiated by adding [γ32p] ATP. After incubation for 10 min at 30° C., 10 μl reaction mixture was removed and spotted on to phosphocellulose membrane. The membrane was then washed five times in 1% phosphoric acid to remove non-protein incorporated ^32P, dried and counted by Cerenkov radiation. The activity of PKA was determined as above except the reaction mixture contained 70 mM NaHPO4, pH 6.8, 14 mM MgCl2, 1.4 mM EDTA, 30 μM malantide (Sigma, St Louis, Mo., USA), 200 μM [γ^32p] ATP and 0.06 mg/ml slice extract.

In data set [2] the test system is PKA. Nature of the data set: PKA activity in extracts of treated hippocampal slice cultures. Here is the method: as §1, §2
Data set [3] has as its system hippocampal slices in culture. As to the kind of experiment: Cell death by LDH activity released into the culture medium. Here is the method: as §1
The LDH released into the culture medium from the slices was determined calorimetrically using Cytotox 96R Non-Radioactive Cytotoxicity Assay Kit (Promega, Madison, Wis.) according to the manufacturer's protocol. The assay was carried out in 96-well microplates, and the results were read by a kinetic microplate reader (Molecular Devices) at a wavelength of 490 nm. Protein concentrations were assayed by the modified Lowry method (Bensadoun and Weinstein, 1976).

Data set [4] concerns tau phosphorylated at Ser-262. Nature of the data set: Immunohistochemical staining of tau phosphorylated at Ser 262 in cultured hippocampal slices. Conditions: 100 nM OA 24 h. Here is the method:
(§3) Organotypic cultures of rat hippocampal slices were prepared from 20-30 day old Wistar rats and cultured with the interface method as described previously (Stoppini, et al. 1991; Bahr, et al. 1995; Zhongrin, et al. 2000). The rats were anesthetized with ketamine (100 mg/kg body weight) and decapitated and the hippocampi were dissected out and sliced into 400 um coronal sections by a McIllwain tissue chopper. Select slices with uninterrupted bright transparent neuronal layers were plated, 1-3 slices/filter, onto Millicell CM filters (Millipore, Bedford, Mass.). For the first 2 days in vitro (DIV) cultures were maintained in 25% horse serum, 50% Basal Media-Eagle (BEM), 25% Eagle's Balanced Salt Solution (EBSS), 25 mM HEPES, 1 mM glutamine, 28 mM glucose, pH 7.2, at 32° C. in a 5% CO2 humidified atmosphere. The slice cultures were then switched to 25% horse serum, 50% BEM and EBSS modified so that the potassium concentration was 2.66 mM, for another 5 DIV. […]
(§4) After different treatments some of the hippocampal slices were fixed in periodate/lysine/paraformaldehyde solution (Mclean, et al. 1974) at 33° C. for 5 h and then kept in 1% Triton-x-100 in PBS (pH 7.4) for 72 h at room temperature to improve the penetration of the antibodies. […] Peroxidase was detected using 0.05% diaminobenzidine (DAB) and H2O2 (0.01%) for 10 min.

Data set [5] has as its system pNF-H/M. Nature of the data set: Immunohistochemical staining of neurofilaments (pNF-H/M) in cultured hippocampal slices. Conditions: 100 nM OA 24 h. Here is the method: as §3, §4
Setting [6] is: 100 nM OA, 10 μM Memantine, 24 h.

Entries after “also recorded” stand apart in the source; their conditions may differ.

Turning to `CC12CC3CC(C)(C1)CC(N)(C3)C2` [Memantine, 1-amino-3,5-dimethyl adamantane], the “restoration of OA-stimulated CaMKII activity” value in data set [1] (100 nM OA and 1, 10 or 30 μM Memantine, 3-48 h (FIG. 2b), p<0.02) is “restored the OA-stimulated CaMKII activity to normal level”; in data set [1] (setting [6]), “restored the OA-induced changes in the activities of PP-2A, CaMKII and PKA to normal levels; also recorded: practically completely restored”. The “restoration of CaMKII activity” value in data set [1] (100 nM OA plus 10 μM Memantine 24 h, or OA 24 h, wash, then Memantine 24 h) was “Restoration of CaMKII activity; also recorded: almost completely restored; also recorded: restored the activities of both PP-2A and CaMKII”. Further, the “additional effect on restoration of CaMKII activity” value in data set [1] (Memantine 10 to 30 μM, or 24 h to 48 h) is reported as “Neither increase of Memantine from 10 μM to 30 μM nor duration of the treatment from 24 h to 48 h resulted in any significant additional effect”. The “concentration giving full effect on restoration of CaMKII activity” value in data set [1] (OA-treated slices) was found to be 10 µM. The “lowest concentration at which restoration of CaMKII activity was observed” value in data set [1] (OA-treated slices) was found to be 1 µM. For the same compound, in data set [1] (after 0.3 mM glutamate, fresh medium with or without 10 μM Memantine or 15 μM MK801), the “CaMKII activity after replacement of glutamate” value is reported as “restored the CaMKII activity to normal level”. Further, the “effect on CaMKII activity in control (untreated) slices” value in data set [1] (no OA) is recorded as “no significant effect”. The “restoration of OA-induced change in PKA activity” value in data set [2] (setting [6]) was “restored the OA-induced changes in the activities of PP-2A, CaMKII and PKA to normal levels”. Also, the “concentration (as low as) restoring OA-induced increase in PKA activity to normal level” value in data set [2] (100 nM OA, p<0.05) worked out at 1 µM. In addition, in data set [2] (no OA), the “effect on PKA activity in control/untreated cultures” value is on record as “no significant effect”. Besides, in data set [3] (100 nM OA, p<0.001 (FIG. 2d)), the “concentration (as low as) that completely inhibited OA-induced cell death” value is 1 µM. Moreover, in data set [3] (10 μM Memantine), the “inhibition of OA-induced cell death” value is “completely inhibited”. Besides, in data set [3] (1-30 μM Memantine, no OA), the “effect on LDH activity in the medium of control cultures” value is “no effect”. The “lowest concentration with significant/detectable inhibition of OA-induced cell death” value in data set [3] (OA-treated slices) came to 1 µM. The “pS262 positive cells / p-Ser-262 immunostaining” value in data set [4] (then 10 μM Memantine 24 h) was “decreased dramatically; also recorded: markedly decreased; also recorded: restored in large part”. The “neurofilament (pNF-H/M, SMI 31) immunostaining” value in data set [5] (then 10 μM Memantine 24 h) was “reduced these changes; also recorded: partially reversed”.

On to `C=C1[C@@H](O)[C@@H]2O[C@]3(CC[C@H](/C=C/[C@@H](C)[C@@H]4CC(C)=C[C@@]5(O[C@H](C[C@@](C)(O)C(=O)O)CC[C@H]5O)O4)O3)CC[C@H]2O[C@@H]1[C@@H](O)C[C@H](C)[C@H]1O[C@@]2(CCCCO2)CC[C@H]1C` [OA, Okadaic Acid], for which the “increase in CaMKII activity” value in data set [1] (10 nM OA, 24 h) is roughly 20%; in data set [1] (100 nM OA, 24 h), roughly 70%; in data set [1] (1,000 nM OA, 24 h) it was roughly 140%. Further, the “CaMKII activity as % of control” value is recorded as 180% in data set [1] (100 nM OA, 24 h) and 240% in data set [1] (1000 nM OA, 24 h). In data set [1] (OA-treated slice cultures), the “change in CaMKII activity” value is “marked increase”. Also, the “increase in PKA activity” value in data set [2] (100 nM OA, 24 h or 48 h) is listed as roughly 20%. The “change in PKA activity” value in data set [2] (OA-treated slice cultures) is listed as “no significant changes; also recorded: no significant alteration”. The “cell death (LDH activity released in the medium)” value in data set [3] (OA up to 1 μM, up to 48 h) was “increased with increase in OA concentration and treatment period; also recorded: markedly increased; also recorded: several-fold increase”. Besides, in data set [4] (then medium 24 h), the “pS262 positive cells / p-Ser-262 staining” value is reported as “increased markedly; also recorded: marked increase”. Besides, in data set [5] (then medium 24 h), the “neurofilament (pNF-H/M, SMI 31) immunostaining” value is “immunostaining was increased; also recorded: an increase in phosphorylation and accumulation of NF-H/M”.
